{"source": "patent US9718834B2", "about": "“Processes and intermediates for making a JAK inhibitor” (Incyte Corporation, priority 2011, dated 2017)", "target": "T1, human JAK1 (a.a. 837-1142) (Homo sapiens, UniProt P23458)", "T1 construct": "human JAK1 (a.a. 837-1142); His tag (N); made in house; host or cells: insect cells (baculovirus)", "T1 sequence (P23458 849-1154)": "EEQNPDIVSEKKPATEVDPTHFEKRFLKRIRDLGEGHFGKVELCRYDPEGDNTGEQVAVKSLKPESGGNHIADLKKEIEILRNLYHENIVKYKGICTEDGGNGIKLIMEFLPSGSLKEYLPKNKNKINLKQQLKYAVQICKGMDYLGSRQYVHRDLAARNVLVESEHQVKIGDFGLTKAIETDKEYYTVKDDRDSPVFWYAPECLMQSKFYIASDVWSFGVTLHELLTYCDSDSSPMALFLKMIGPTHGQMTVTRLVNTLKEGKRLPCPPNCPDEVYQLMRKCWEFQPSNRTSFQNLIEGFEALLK", "assay": "In vitro JAK kinase assay (HTRF, phosphorylation of biotinylated peptide), JAK1", "type": "biochemical", "details": "measured at 1 mM ATP", "method": "The compound of Formula I herein was tested for inhibitory activity of JAK targets according to the following in vitro assay described in Park et al., Analytical Biochemistry 1999, 269, 94-104. The catalytic domains of human JAK1 (a.a. 837-1142) and JAK2 (a.a. 828-1132) with an N-terminal His tag were expressed using baculovirus in insect cells and purified. The catalytic activity of JAK1 and JAK2 was assayed by measuring the phosphorylation of a biotinylated peptide. The phosphorylated peptide was detected by homogenous time resolved fluorescence (HTRF). IC50s of compounds were measured for each kinase in the 40 microL reactions that contain the enzyme, ATP and 500 nM peptide in 50 mM Tris (pH 7.8) buffer with 100 mM NaCl, 5 mM DTT, and 0.1 mg/mL (0.01%) BSA. For the 1 mM IC50 measurements, ATP concentration in the reactions was 1 mM. Reactions were carried out at room temperature for 1 hr and then stopped with 20 μL 45 mM EDTA, 300 nM SA-APC, 6 nM Eu-Py20 in assay buffer (Perkin Elmer, Boston, Mass.). Binding to the Europium labeled antibody took place for 40 minutes and HTRF signal was measured on a Fusion plate reader (Perkin Elmer, Boston, Mass.).", "note": "pIC50: −log10 of the molar value."}
{"smiles": "N#CCC1(n2cc(-c3ncnc4[nH]ccc34)cn2)CN(C2CCN(C(=O)c3ccnc(C(F)(F)F)c3F)CC2)C1", "note": "[Example 1, {1-{1-[3-fluoro-2-(trifluoromethyl)isonicotinoyl]piperidin-4-yl}-3-[4-(7H-pyrrolo[2,3-d]pyrimidin-4-yl)-1H-pyrazol-1-yl]azetidin-3-yl}acetonitrile]", "values": [{"measurement": "pIC50", "value": "≥ 8.30"}]}
